We go through 16 compounds from patent publication US20060100259A1, “Process for the preparation of substituted triazole compounds” (priority 2004, published 2006).

What is called melting point is the temperature, or range, at which the solid turns liquid. `COc1ccc(C(=O)n2nc(Nc3ccc(S(N)(=O)=O)cc3)nc2N)cc1` [Compound #12, N^3-[(4-aminosulfonyl)phenyl]-1-(4′-methoxybenzoyl)-1H-1,2,4-triazole-3,5-diamine] yielded a melting point of 244.5 to 247.5 °C. As for `Nc1nc(Nc2ccccc2)nn1C(=O)c1ccco1` [Compound #31, N^3-phenyl-1-(2-furoyl)-1,2,4-triazole-3,5-diamine], the figure is 201 to 202 °C. As for `Nc1nc(Nc2ccc(S(N)(=O)=O)cc2)nn1C(=O)c1ccc([N+](=O)[O-])cc1` [Compound #9, N^3-[(4-aminosulfonyl)phenyl]-1-(4′-nitrobenzoyl)-1H-1,2,4-triazole-3,5-diamine], the figure is 336 to 338 °C; as for `Nc1nc(Nc2ccc(S(N)(=O)=O)cc2)nn1C(=O)c1cccc(C(F)(F)F)c1` [Compound #6, N^3-[(4-aminosulfonyl)phenyl]-1-[3′-(trifluoromethyl)benzoyl]-1H-1,2,4-triazole-3,5-diamine], 251 to 253 °C.

In turn, `Nc1nc(Nc2ccc(S(N)(=O)=O)cc2)nn1C(=O)c1ccccc1Br` [Compound #4, N^3-[(4-aminosulfonyl)phenyl]-1-(2′-bromobenzoyl)-1H-1,2,4-triazole-3,5-diamine] yielded a melting point of 246 to 248 °C.

The compound `Cc1ccc(C(=O)n2nc(Nc3ccccc3)nc2N)cc1` [Compound #25, N^3-phenyl-1-(4′-methylbenzoyl)-1,2,4-triazole-3,5-diamine] yielded a melting point of 222.5 to 224 °C. `Nc1nc(Nc2ccc(S(N)(=O)=O)cc2)nn1C(=O)c1ccc(Cl)cc1` [Compound #28, N^3-[(4-aminosulfonyl)phenyl]-1-(4′-chlorobenzoyl)-1H-1,2,4-triazole-3,5-diamine]: the melting point was above 260 °C.

In the case of `COc1ccccc1C(=O)n1nc(Nc2ccc(S(N)(=O)=O)cc2)nc1N` [Compound #3, N^3-[(4-aminosulfonyl)phenyl]-1-(2′-methoxybenzoyl)-1H-1,2,4-triazole-3 5-diamine], the melting point lay in the range of 217 to 221.5 °C. As for `COc1cccc(C(=O)n2nc(Nc3ccccc3)nc2N)c1` [Compound #30, N^3-phenyl-1-(3′-methoxybenzoyl)-1,2,4-triazole-3,5-diamine], the figure is 174 to 184 °C; as for `Nc1nc(Nc2ccc(S(N)(=O)=O)cc2)nn1C(=O)c1cccc(Br)c1` [Compound #7, N^3-[(4-aminosulfonyl)phenyl]-1-(3′-bromobenzoyl)-1H-1,2,4-triazole-3,5-diamine], 242 to 244 °C.

The compound `Nc1nc(Nc2ccc(S(N)(=O)=O)cc2)nn1C(=O)c1ccc(O)cc1` [Compound #10, N^3-[(4-aminosulfonyl)phenyl]-1-(4′-hydroxybenzoyl)-1H-1,2,4-triazole-3,5-diamine] yielded a melting point above 300 °C.

Consider `COc1ccccc1C(=O)n1nc(Nc2ccccc2)nc1N` [Compound #29, N^3-phenyl-1-(2′methoxybenzoyl)-1,2,4-triazole-3,5-diamine], for which the melting point is 89.5 to 94 °C.

`Nc1nc(Nc2ccc(S(N)(=O)=O)cc2)nn1C(=O)c1cccc([N+](=O)[O-])c1` [Compound #5, N^3-[(4-aminosulfonyl)phenyl]-1-(3′-nitrobenzoyl)-1H-1,2,4-triazole-3,5-diamine] had a melting point of 260 to 262 °C. As for `CC(=O)n1nc(Nc2ccc(S(N)(=O)=O)cc2)nc1N` [Compound #16, N^3-[(4-aminosulfonyl)phenyl]-1-acetyl-1H-1,2,4-triazole-3,5-diamine], the figure is 334 to 336 °C; as for `Nc1nc(Nc2ccc(S(N)(=O)=O)cc2)nn1C(=O)c1ccccc1Cl` [Compound #2, N^3-[(4-aminosulfonyl)phenyl]-1-(2′-chlorobenzoyl)-1H-1,2,4-triazole-3,5-diamine], 237 to 242.5 °C; as for `Nc1nc(Nc2ccc(S(N)(=O)=O)cc2)nn1C(=O)c1ccco1` [Compound #17, N^3-[(4-aminosulfonyl)phenyl]-1-(2′-furoyl)-1H-1,2,4-triazole-3,5-diamine], above 300 °C.
